# Measurements published in patent publication US20140105996A1, “Avian-Based Treatment” (Cocky Smart Pty Ltd, priority 2011, published 2014).
# Tested on: A2058 melanoma cells
# Assay: Growth of A2058 melanoma cells with EP-2 or TPP (Examples 1-3)
# Assay type: cell-based
# Method: Saturated solutions of bird extract EP-2, 10 ng/mL triphenyl phosphate (TPP) or control media were used to saturate growth medium containing melanoma cells (A2058 Melanoma cells) at a concentration of approximately 1.2×10^4 cells/well or 1.0×10^4 cells/well. All results are average cell counts for experiments performed in triplicate (see FIG. 1). TPP was investigated on the basis of the findings in Zurhaar WO2008/019452 “Insect Repellent” that the insect repellent factor in an avian extract was TPP.
# Pooled solvent vehicle (ethanol, methanol and pentane—used for EP-2 extraction), avian extract EP-2 and TPP were applied to 4×10^4 A2058 cells in 12 well plates.
# To further investigate the effect of EP-2 on cells in general, a ⅕ dilution of avian extract EP-2 was placed on 1×10^4 A2058 melanoma cells and HEK293 non-cancerous human embryonic kidney cells.
compound,measurement,setting,value
"O=P(Oc1ccccc1)(Oc1ccccc1)Oc1ccccc1 [TPP, Triphenyl phosphate]",lower growth rate than cells containing control medium,"Example 1, by day 9, 10 ng/mL TPP",25%
same,effect on cell growth,Example 2,moderate effect
